According to publication PMC10458118, “Bitter Almond Albumin ACE-Inhibitory Peptides: Purification, Screening, and Characterization In Silico, Action Mechanisms, Antihypertensive Effect In Vivo, and Stability” (Molecules, 2023):
pIC50: −log10 of the molar value. Ends that are not written are not given here.

What was measured:
[1] = test system: ACE; details: cited from earlier work; for ACE-inhibitory activity in words: 30 (ADMIET, QTPHQ, ELHPQ), ref 27 (RTVFDGEL, RADVFNPR); for pIC50: read-out: Inhibitory capacity on ACE (IC50)
Excerpt: The results of ultra-high-performance liquid chromatography and quantum-ultra mass spectrometric determination of BAAH-4-C are shown in Table 1 and Figure 4. Five oligopeptides, […]([…]), Lys-Thr-Glu-Thr-Gln-Pro (KTETQP), […]([…]), […]([…]), and Thr-Cys-Gly-Ala-Ser (TCGAS) were obtained. However, only […] offered potential antihypertension based on the vector machine software score (1.35) calculated by the database AHTpin [28]. […] As shown in the Lineweaver–Burk diagram of ACE, the Km increased with the increasing […] dose, but the maximum velocity (Vmax) decreased when the […] dose increased, which was the typical effect of noncompetitive inhibitors. Peptides such as […] an ... || To the best of our knowledge, this is the first study to simultaneously investigate the capacities of bitter almond albumin peptides to inhibit ACE and bind with zinc ions. Previous studies evidenced that thermolysin could quickly cleave the amide bonds linked with hydrophobic amino acid residues, with the released hydrophobic amino acid residues playing an important role in ACE inhibition; whereas papain cleaves multiple sites of polypeptide chains, especially peptide bonds linking with acidic amino acid residues (Glu and Asp), Arg, and aromatic amino acids which was helpful for the release o ... || (+ 2 further places)

[2] = test system: SHR; details: cited from earlier work
Excerpt: Zinc chelation may change the coordination of peptides toward ACE, resulting in lower ACE-inhibitory activity and antihypertension.

[3] = Chelating ability toward zinc ions, 4-(β-Pyridinazo)-resorcinol method; format: physicochemical; details: 0.75 mmol·L^−1 ZnSO4 in HEPES-KOH buffer, peptide solution 0.8 mg·mL^−1, 15 min, 25 °C; repeated three or more times
Method: (§1) In short, 0.75 mmol·L^−1 of ZnSO4 (dissolved in 0.2 mmol·L^−1 of HEPES-KOH buffer) and 10 mmol·L^−1 of 1,4-Dithiothreitol were added into a glass tube. The tube was incubated in the THZ-82AB thermostatic oscillator (195 r·min^−1 and 25 °C). Five minutes later, the zinc concentration in the glass tube was measured and read as C0. Next, the BAAH peptides aqueous solution (0.8 mg·mL^−1) was added and the mixture was continuously shaken for another 15 min. Then, the zinc concentration in the glass tube was measured and read as Ct. The chelating ability of BAAH peptides toward zinc ions was calculated as follows, and ethylenediamine tetraacetic acid (EDTA) was used as the positive control. (1) Chelating ability towards zinc ions (mg·g^−1) = (C0−Ct) × V/m where V and m represent the volume of the reaction solution (mL) and the mass weight of BAAH peptides (g), respectively.

[4] = test system: ACE; assay: ACE inhibition after simulated gastrointestinal digestion (pepsin, then pancreatin); format: in vitro ADME; details: pepsin pH 2.00, 90 min, then pancreatin pH 7.00, 150 min, 37 °C; p > 0.5 as printed
Method: The N-hippuryl-L-histidyl-L-leucine method was utilized for the determination of the inhibiting capacity of BAAH peptides toward ACE [30]. In a glass test tube, 0.2 mL of ACE solution (dissolved in boric acid buffer, pH 8.3) and 0.2 mL of BAAH peptide aqueous solution (1 mg·mL^−1) were added. The mixture in the glass tube was shaken in a water bath at 143 r·min^−1 and 37 °C. Ten minutes later, 0.65 mL of N-hippuryl-L-histidyl-L-leucine (5 mmol·L^−1, dissolved in boric acid buffer, pH 8.3) was added. After continuously shaking for 1 h, 0.75 mL of dilute hydrochloric acid was added into the tube. Next, hippuric acid produced in the reaction solution was extracted by ethyl acetate (1.25 mL). The hippuric acid solution (the supernatant) was sucked out with a pipette (DG-1, Dragon TopPette, Beijing, China) and heated at 70 °C to evaporate the ethyl acetate. The residual hippuric acid was resolved in distilled water, and its absorbance at 228 nm was read. The inhibition capacity of BAAH peptides against ACE was the percentage of the absorbance reduction value at 228 nm to the absorbance of the control group (without BAAH peptide). The concentration of BAAH peptides was defined as IC50 when the activity of ACE was inhibited by half. Captopril was used as the positive control. […]

[5] = Zinc-chelating ability after simulated gastrointestinal digestion (pepsin, then pancreatin); format: in vitro ADME; details: 5 mg/mL peptide; pepsin pH 2.00, 90 min, then pancreatin pH 7.00, 150 min, 37 °C; then 4-(β-Pyridinazo)-resorcinol method
Method: as §1
In a stirring (115 r·min^−1) water bath at 37 °C, the BAAH peptides’ aqueous solution (5 mg/mL, 10 mL) was added into a glass test tube, and the pH value was adjusted to 2.00 ± 0.05 with dilute hydrochloric acid solution (0.5 mol·L^−1). […] Afterward, both the chelating ability toward zinc ion, and the inhibition activity of BAAH peptides against ACE were determined using the 4-(β-Pyridinazo)-resorcinol method and N-hippuryl-L-histidyl-L-leucine method, respectively. […]

[6] = biological target: T1, ACE (Oryctolagus cuniculus, UniProt P12822); assay: ACE inhibition, N-hippuryl-L-histidyl-L-leucine method; format: biochemical; details: synthesized peptide; HHL 5 mmol·L^−1, boric acid buffer pH 8.3, 37 °C, 10 min pre-incubation, 1 h reaction, absorbance at 228 nm; read-out: Inhibitory effect against ACE (IC50)
T1 construct: purchased Sigma (St. Louis, MO, USA)
T1 sequence (P12822 34-1310): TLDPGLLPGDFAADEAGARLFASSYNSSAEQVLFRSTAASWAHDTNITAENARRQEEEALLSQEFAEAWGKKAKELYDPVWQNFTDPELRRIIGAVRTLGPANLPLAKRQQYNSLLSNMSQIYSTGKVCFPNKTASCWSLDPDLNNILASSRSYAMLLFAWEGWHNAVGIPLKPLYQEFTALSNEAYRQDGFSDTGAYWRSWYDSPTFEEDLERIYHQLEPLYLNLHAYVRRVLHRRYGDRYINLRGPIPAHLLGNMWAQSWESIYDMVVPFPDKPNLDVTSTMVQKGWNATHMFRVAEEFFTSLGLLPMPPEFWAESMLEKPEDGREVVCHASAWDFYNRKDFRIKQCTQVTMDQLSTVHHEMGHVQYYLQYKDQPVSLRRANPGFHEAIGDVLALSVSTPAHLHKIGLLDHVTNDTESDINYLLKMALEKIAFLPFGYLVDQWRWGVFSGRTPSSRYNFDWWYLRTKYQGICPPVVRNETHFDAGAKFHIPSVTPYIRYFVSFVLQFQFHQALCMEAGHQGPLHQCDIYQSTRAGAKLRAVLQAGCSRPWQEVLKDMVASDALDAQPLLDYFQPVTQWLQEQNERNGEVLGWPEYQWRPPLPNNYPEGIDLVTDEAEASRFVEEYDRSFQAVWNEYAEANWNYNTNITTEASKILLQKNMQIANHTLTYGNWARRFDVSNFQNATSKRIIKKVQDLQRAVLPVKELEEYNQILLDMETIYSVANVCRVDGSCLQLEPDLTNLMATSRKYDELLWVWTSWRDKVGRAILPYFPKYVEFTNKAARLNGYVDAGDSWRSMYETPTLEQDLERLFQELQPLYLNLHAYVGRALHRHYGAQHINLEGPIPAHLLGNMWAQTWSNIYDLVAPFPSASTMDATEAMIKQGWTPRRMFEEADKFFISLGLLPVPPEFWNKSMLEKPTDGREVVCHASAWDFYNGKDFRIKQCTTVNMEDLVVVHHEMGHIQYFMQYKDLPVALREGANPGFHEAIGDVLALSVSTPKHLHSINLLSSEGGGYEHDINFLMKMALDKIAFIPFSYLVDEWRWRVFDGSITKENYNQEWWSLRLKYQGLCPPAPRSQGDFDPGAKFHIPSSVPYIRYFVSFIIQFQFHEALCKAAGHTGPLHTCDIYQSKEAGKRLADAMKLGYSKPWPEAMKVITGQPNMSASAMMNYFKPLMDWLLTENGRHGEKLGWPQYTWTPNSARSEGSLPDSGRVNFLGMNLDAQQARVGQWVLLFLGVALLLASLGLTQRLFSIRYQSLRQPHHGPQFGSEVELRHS
Method: The N-hippuryl-L-histidyl-L-leucine method was utilized for the determination of the inhibiting capacity of BAAH peptides toward ACE [30]. In a glass test tube, 0.2 mL of ACE solution (dissolved in boric acid buffer, pH 8.3) and 0.2 mL of BAAH peptide aqueous solution (1 mg·mL^−1) were added. The mixture in the glass tube was shaken in a water bath at 143 r·min^−1 and 37 °C. Ten minutes later, 0.65 mL of N-hippuryl-L-histidyl-L-leucine (5 mmol·L^−1, dissolved in boric acid buffer, pH 8.3) was added. After continuously shaking for 1 h, 0.75 mL of dilute hydrochloric acid was added into the tube. Next, hippuric acid produced in the reaction solution was extracted by ethyl acetate (1.25 mL). The hippuric acid solution (the supernatant) was sucked out with a pipette (DG-1, Dragon TopPette, Beijing, China) and heated at 70 °C to evaporate the ethyl acetate. The residual hippuric acid was resolved in distilled water, and its absorbance at 228 nm was read. The inhibition capacity of BAAH peptides against ACE was the percentage of the absorbance reduction value at 228 nm to the absorbance of the control group (without BAAH peptide). The concentration of BAAH peptides was defined as IC50 when the activity of ACE was inhibited by half.

ADMIET [peptide identified in Lepidium meyenii]
ACE-inhibitory activity in words [1]: high ACE-inhibitory activities

EKTFLLYSCPHR [peptide identified from camel milk]
pIC50 [1]: 3.51

ELHPQ [peptide derived from canary seeds]
ACE-inhibitory activity in words [1]: high ACE-inhibitory activities

FMRWRDRFL [peptide isolated from tombul hazelnut]
pIC50 [1]: 3.59

GYGYNY [camellia peptide]
Antihypertensive effects on SHR [2]: dose-dependent antihypertensive effects | Effect of the addition of zinc ions on antihypertension [2]: reduce

HLNVVHEN [peptide identified from walnut protein]
ACE inhibitory pattern [1]: noncompetitive

KTETQP [KTETQP]
Chelating ability toward zinc ions [3]: 19.30 ± 1.46 e mg·g^−1

KYPHVF [symbiotic peptide]
ACE inhibition ability after zinc chelation [1]: not significantly reduced

LVRYYLLVR [peptide from hazelnut protein]
ACE inhibitory pattern [1]: noncompetitive

LYSPLLKYFD [peptide from rice bran]
Antihypertensive effects on SHR [2]: dose-dependent antihypertensive effects | Effect of the addition of zinc ions on antihypertension [2]: reduce

PGSGCAGTDL [called Mung bean-derived in b48]
Antihypertensive effects on SHR [2]: dose-dependent antihypertensive effects | Effect of the addition of zinc ions on antihypertension [2]: reduce | ACE inhibitory pattern [1]: noncompetitive

QPPAAAAAAGAG
Chelating ability toward zinc ions [3]: 1.14 ± 0.01 g mg·g^−1

QTPHQ [peptide derived from canary seeds]
ACE-inhibitory activity in words [1]: high ACE-inhibitory activities

RADVFNPR [peptide derived from palm kernel glutelin-1]
ACE-inhibitory activity in words [1]: excellent ability to restrain ACE

RPPSEDEDQE
Zinc-chelating ability and ACE-inhibitory capacity after hydrolysis of gastrointestinal proteases, versus untreated peptide [4]: not significantly reduced | Chelating ability toward zinc ions after gastrointestinal digestion [5]: 18.55 ± 0.95 mg/g | pIC50 [6]: 3.69

RTVFDGEL [peptide derived from palm kernel glutelin-1]
ACE-inhibitory activity in words [1]: excellent ability to restrain ACE
